We go through five compounds from patent publication US5668143A, “Heterocyclic benzenesulfonylimine derivatives as inhibitors of IL-1 action” (Merrell Pharmaceuticals Inc., priority 1996, dated 1997).

In assay [1] the test system is interleukin-1 beta (IL-1β) release (production) by human peripheral blood monocyte-derived macrophages. Description: Endotoxin-Induced Interleukin-1 Beta Release by Human Macrophages. The following applies: Macrophage, endotoxin 20 ng/mL (Salmonella typhimurium, Re-mutant), compound 1 h before stimulation, supernatant at 24 h, ELISA. It counts as cell-based. As for the experimental part:
Endotoxin-Induced Interleukin-1 Beta Release by Human Macrophages The objective of this test is to determine the inhibitory concentrations for the test compounds against endotoxin-induced interleukin-1 beta (IL-1β) release (production) by human peripheral blood monocyte-derived macrophages. The source of the human peripheral blood monocyte-derived macrophages is as follows: Venous blood is collected from healthy volunteers in 10 mM sodium citrate (2 mL sterile sodium citrate for 40 mL blood). Mononuclear cells are isolated with the Leucoprep tubes (Becton Dickenson, product number 2752 or 2751) spun at 1500 g for 15 minutes. Aliquots of 3×10^6 mononuclear cells are added to 24-well tissue culture plates (Corning) in RPMI-1640. After one hour incubation at 37° C., non-adherent cells are gently rinsed off. The adherent cells (macrophages) are given back fresh medium RPMI-1640, 1 mL/well. Macrophage monolayer cultures are pretreated with compounds one hour prior to endotoxin (20 ng/mL, Salmonella typhimurium, Re-mutant, from Ribi Immuchem.) stimulation. Compounds dissolved in 95% ethanol or DMSO would require additional monolayer cultures treated with 10 or 2.5 μl 95% ethanol or DMSO, respectively. Culture supernatants are collected 24 hours later and are tested for IL-1β using a commercial ELISA kit (Cistron). The IL-1β concentration in the culture supernatant is calculated by a standard curve generated from a series of known concentrations. Potency of compound is reported in IC50 (μM).

A short description of assay [2]: Interleukin-1-Beta-Induced Tumor Necrosis Factor Alpha Release by Human Macrophages. It counts as cell-based. Conditions: Macrophage; TNF-α release; recombinant human IL-1β 20 ng/mL; compound 1 h before stimulation; supernatant at 24 h; ELISA. The text has this: Interleukin-1-Beta-Induced Tumor Necrosis Factor Alpha Release by Human Macrophages
To determine the inhibitory concentrations for the test compounds against interleukin-1 beta (IL-1β)-induced tumor necrosis factor alpha (TNFα) release by human peripheral blood monocyte-derived macrophages. It should be understood that this is a test of the ability of the test compounds to modulate, i.e. inhibit, the activity of IL-1β by measuring the inhibition of IL-1β induced release of TNFα.
Source Human peripheral blood monocyte-derived macrophages:
Venous blood is collected form healthy volunteers in 10 mM sodium citrate (2 mL sterile sodium citrate for 40 mL blood). Mononuclear cells are isolated with the Leucoprep tubes (Becton Dickinson, product number 2752 or 2751) spun at 1500 g for fifteen minutes. Aliquots of 3×10^6 mononuclear cells are added to 24-well tissue culture plates (Corning) in RPMI-1640. After 1 hour incubation at 37° C., non-adherent cells are gently rinsed off. The adherent cells (macrophages) are given back fresh medium RPMI-1640, 1 mL/well.
Macrophage monolayer cultures are pretreated with compounds one hour prior to IL-1β (20 ng/mL, recombinant human IL-1β) stimulation. Compounds dissolved in 95% ethanol or DMSO would require additional monolayer cultures treated with 10 or 2.5 μl 95% ethanol or DMSO, respectively. Culture supernatants are collected 24 hours later and are tested for TNF-α using a commercial ELISA kit (Cistron).
The TNF-α concentration in the culture supernatant is calculated by a standard curve generated from a series of known concentrations. Potency of compound is reported in IC50 (μM).
For orientation: An ELISA detects its analyte on a solid surface through an enzyme-linked reagent.

On to `CNC(=O)c1cc(=NS(=O)(=O)c2ccccc2)c2c(Cl)cc(Cl)cc2[nH]1` [5,7-Dichloro-4-[benzenesulfonylimino]-1,4-dihydroquinoline-2-carboxylic acid-N-methylamide], for which the IC50 – broadly, the midpoint of a concentration-inhibition curve – in assay [1] came to 3 µM; in assay [2], 4 µM.
For `COC(=O)c1cc(=NS(=O)(=O)c2ccccc2)c2c(Cl)cc(Cl)cc2[nH]1` [5,7-Dichloro-4-[benzenesulfonylimino]-1,4-dihydroquinoline-2-carboxylic acid, methyl ester] the same measures were 6 µM and 3 µM.
For `CCOC(=O)c1cc(=NS(=O)(=O)c2ccccc2)c2c(Cl)cc(Cl)cc2[nH]1` [5,7-Dichloro-4-[benzenesulfonylimino]-1,4-dihydroquinoline-2-carboxylic acid, ethyl ester] the same measures were 2 µM and 3 µM.
Taken in the same sequence, the figures for `COC(=O)c1cc(=NS(=O)(=O)c2ccccc2)c2ccccc2o1` [4-[Benzenesulfonylimino]-4H-chromene-2-carboxylic acid, methyl ester] were 3 µM and 2 µM.
Turning to `CCCCOC(=O)c1cc(=NS(=O)(=O)c2ccccc2)c2c(Cl)cc(Cl)cc2[nH]1` [5,7-Dichloro-4-[benzenesulfonylimino]-1,4-dihydroquinoline-2-carboxylic acid, butyl ester], the IC50 in assay [1] came to 3 µM; in assay [2], 5 µM.
